Patent US20250236614A1, “BICYCLIC TETRAHYDROAZEPINE DERIVATIVES” (Hoffmann-La Roche Inc., priority 2022, published 2025)
Like-named read-outs stand apart in the source and are kept apart here.

Experiments:
DGK α kinase = DGK α kinase (Homo sapiens, UniProt P23743); assay: In vitro DGK inhibition assay (ADP Glo) run by Reaction Biology Corp., DGK alpha; type: biochemical; conditions: isomer A, 2 nM kinase, 50 μM ATP, 500 uM DLG, 10-dose, 3-fold dilution starting at 1 μM, read-out: DGKalpha IC50
Experimental: (§1) DGK α and ζ kinase use ATP to phosphorylate the substrate 1,2-dilauroyl-sn-glycerol (DLG). ATP is converted to ADP as a result of this enzymatic reaction.
(§2) After the kinase reaction, an ATP-depletion reagent is added to terminate the kinase reaction and deplete any remaining ATP, leaving only ADP. Second, a detection reagent is added to simultaneously convert ADP to ATP and allow the newly synthesized ATP to be converted to light using a coupled luciferase/luciferin reaction.
(§3) DGK α and ζ kinase ADP Glo assays were ran by Reaction Biology Corp., 1 Great Valley Parkway, Suite 2, Malverm, 19355, PA, USA. Information provided by the service provider are the following: DGK α and ζ kinases were used at 2 nM final concentration. Reactions were carried out at 50 μM ATP. 500 uM of the substrate DLG (Dilauroyl-sn-glycerol) was used. Compounds were received at 10 mM DMSO stock solution and were tested in 10-dose IC50 duplicate with 3-fold serial dilution starting at 1 μM. A control compound, Calphostin C, was tested in 10-dose IC50 with 3-fold serial dilution starting at 100 μM.

primary human T-cells = assay: IL2 secretion measurements in CD3-stimulated T-cells; type: cell-based; conditions: isomer A; for EC50: CD3 antibody-stimulated T-cells, IL2 in supernatant after 24 hours, read-out: Tcell IL2 CD3 EC50; for Emax IL2 (% activation) / Emax: CD3 condition, 24 hours, 20 μM reference compound A1 = 100%, DMSO neutral control; for Emax: read-out: Emax IL2 (% activation)
Experimental: As readouts for T-cell activation, IL2 secretion after 24 hours and proliferation after 5 days was measured. Increases in IL2 secretion and proliferation upon compound treatment were assessed as the % of the maximum of reference compound A1. WO 2016/139181 discloses reference compound A1 as example 70. As a counter screen and to make sure that no unwanted TCR-independent activation was triggered, PBS conditions were run for all compounds.
Expanded primary human T-cells were thawed and cultured in RPMI 1640 (Gibco, #61870-010)+5% human serum (HS, Sigma, #H3667)+1 mM Sodium Pyruvate (Gibco, #11360-039)+50 μM 2-mercaptoethanol (Gibco, #31350-010) and lx Pen-Strep (Life Technologies, #15140122) medium at density of 2 Mio/ml for 3 hours in 5% CO2, 37° C. and 95% humidity. For coating of plates, […] or PBS++ with CD3 antibody (concentration depending on donor and determined by CD3 titrations) was added 100 μl/well to Poly-D Lysine coated 96-well plates. Plates were sealed and incubated at room temperature for 3 hours on a table-top rocking platform. After incubation, plates were washed once with PBS−− and filled with 40 μl/well culture medium only. Compounds were then added (see next section) to medium only plates. After 3 hours of culturing the T-cells, cells were filtered through a cell strainer (Miltenyi Biotech, #130-041-407), counted again and concentration was adjusted to 1.25 Mio/ml.
Cells were then seeded 80 μl/well to the 40 μl/well including dispensed compounds according to plate layout. By adding cells, compounds were further diluted 1:3, and resulting in 100k cells/120 μl/well. After 24 hours 40 μl of supernatant was collected carefully from the top while not disturbing the cells and transferred into a round bottom 96 well plate. Collected and frozen supernatant was used for detection of IL2 using the IL-2 Human ProQuantum Immunoassay Kit (Invitrogen) or using the Human IL-2 ELISA Kit (Thermo Fisher).
Compounds were added in a 5 or 6 pt dose response with the Tecan D300e Digital Dispenser, all conditions 3 times more concentrated than the end-concentration, since cells are added afterwards (80 μl cells to 40 μl prepared medium with treatment). The DR was starting at 20 μM or 10 μM final top concentration and a dilution factor of 3.333. The positive control was the reference compound A1 that was added in a dose response as well, additionally to 3 wells of only 20 μM representing the positive stimulator control. All wells were normalized with DMSO to a final concentration of 0.6% (0.2% end-concentration).
The immunoassay is done following the manufacturer's manual (Invitrogen, #A35603).
Additional information: For the immunoassay, MicroAmp™ EnduraPlate™ Optical 384-Well plates are used. Frozen supernatant is thawed and centrifuged for 5 minutes at 1000×g, both steps at 4° C. After centrifugation, required sample amount is taken from the top, and in a separate LightCycler V-bottom plate (working plate) diluted with assay dilution buffer, dilution factor depending on the PBS or CD3 condition but at least 1:3. IL-2 standard and blanks are prepared in the same V-bottom plate, standard with a range of […] (extended version). After preparation, […] of sample dilutions or standard/blanks are transferred to the optical 384-well plate (assay plate) and the 10 μl reaction protocol is being followed. For measurement, the QuantStudio 12K Flex system is used. Raw data is extracted and IL-2 concentrations are calculated with the Thermo Fisher online app (apps.thermofisher.com/apps/proquantum).
ELISA is done following the manufacturer's manual (Thermo Fisher Scientific, #88-7025-88).
Additional information: For the ELISA Nunc MaxiSorp 96 well plates are used. Frozen supernatant is thawed and centrifuged for 5 minutes at 1000×g, both steps at 4° C. After that, required sample amount is taken from the top, and in a separate V-bottom plate diluted with ELISA diluent, dilution factor depending on the PBS or CD3 condition. […]

DGK ζ kinase = DGK ζ kinase (Homo sapiens, UniProt Q13574); assay: In vitro DGK inhibition assay (ADP Glo) run by Reaction Biology Corp., DGK zeta; type: biochemical; conditions: isomer A, 2 nM kinase, 50 μM ATP, 500 uM DLG, 10-dose, 3-fold dilution starting at 1 μM, read-out: DGKzeta IC50
Experimental: as §1, §2, §3

Sequence of DGK ζ kinase (Q13574 whole entry): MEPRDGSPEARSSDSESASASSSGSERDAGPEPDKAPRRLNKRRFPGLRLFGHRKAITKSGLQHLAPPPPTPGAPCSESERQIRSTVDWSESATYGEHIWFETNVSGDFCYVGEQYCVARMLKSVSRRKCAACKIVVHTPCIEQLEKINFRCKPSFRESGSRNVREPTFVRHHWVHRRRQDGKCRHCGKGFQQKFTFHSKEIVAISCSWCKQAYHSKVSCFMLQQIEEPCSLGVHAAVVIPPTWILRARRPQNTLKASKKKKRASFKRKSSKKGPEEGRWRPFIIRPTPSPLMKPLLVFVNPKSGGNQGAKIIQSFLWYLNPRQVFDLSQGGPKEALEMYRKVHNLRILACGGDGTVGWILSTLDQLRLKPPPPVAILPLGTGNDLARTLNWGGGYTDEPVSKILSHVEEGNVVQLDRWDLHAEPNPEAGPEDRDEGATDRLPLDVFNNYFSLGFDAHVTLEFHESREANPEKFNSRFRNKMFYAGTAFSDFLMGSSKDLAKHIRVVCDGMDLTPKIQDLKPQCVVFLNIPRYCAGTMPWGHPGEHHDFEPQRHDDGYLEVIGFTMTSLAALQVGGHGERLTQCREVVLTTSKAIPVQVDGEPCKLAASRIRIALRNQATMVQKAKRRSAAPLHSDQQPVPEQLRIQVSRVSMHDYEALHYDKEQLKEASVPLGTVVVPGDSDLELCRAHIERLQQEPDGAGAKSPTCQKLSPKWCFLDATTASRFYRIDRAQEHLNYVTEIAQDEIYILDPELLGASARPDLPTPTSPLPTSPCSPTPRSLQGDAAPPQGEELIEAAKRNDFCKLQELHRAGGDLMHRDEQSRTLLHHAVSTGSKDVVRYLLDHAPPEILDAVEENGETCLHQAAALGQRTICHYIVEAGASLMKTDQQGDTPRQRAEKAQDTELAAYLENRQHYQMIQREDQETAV
Sequence of DGK α kinase (P23743 whole entry): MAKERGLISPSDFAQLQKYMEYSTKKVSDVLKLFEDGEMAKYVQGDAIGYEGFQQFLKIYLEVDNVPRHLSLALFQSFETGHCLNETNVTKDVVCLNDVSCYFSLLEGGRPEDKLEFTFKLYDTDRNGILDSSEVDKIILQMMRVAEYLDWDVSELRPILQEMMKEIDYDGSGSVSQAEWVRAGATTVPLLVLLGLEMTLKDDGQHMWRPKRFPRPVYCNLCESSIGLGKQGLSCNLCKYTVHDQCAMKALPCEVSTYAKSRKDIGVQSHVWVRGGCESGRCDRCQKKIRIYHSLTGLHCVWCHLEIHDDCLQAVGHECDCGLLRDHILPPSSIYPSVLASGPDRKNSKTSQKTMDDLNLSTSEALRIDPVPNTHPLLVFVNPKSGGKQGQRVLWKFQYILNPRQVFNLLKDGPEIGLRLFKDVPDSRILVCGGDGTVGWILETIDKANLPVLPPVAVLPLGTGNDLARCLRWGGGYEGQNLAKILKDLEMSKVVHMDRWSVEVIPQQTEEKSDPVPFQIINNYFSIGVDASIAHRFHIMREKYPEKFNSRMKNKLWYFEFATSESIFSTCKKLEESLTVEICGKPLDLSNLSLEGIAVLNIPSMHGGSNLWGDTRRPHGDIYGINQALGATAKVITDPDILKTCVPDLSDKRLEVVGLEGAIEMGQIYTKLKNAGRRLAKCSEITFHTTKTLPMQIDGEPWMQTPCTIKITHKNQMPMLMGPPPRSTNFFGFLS

Molecule | IC50 (DGK α kinase) [nM] | IC50 (DGK ζ kinase) [nM] | EC50 (primary human T-cells; Homo sapiens, T-cell) [nM] | EC50 (primary human T-cells) [nM] | Emax IL2 (% activation) (primary human T-cells) | Emax (primary human T-cells; Homo sapiens, T-cell) [%]
2-methyl-2-[5-[(3S)-3-amino-5,5,7-trifluoro-2-oxo-1-[[4-(trifluoromethoxy)phenyl]methyl]-3,4-dihydro-1-benzazepin-8-yl]-1,3,4-oxadiazol-2-yl]propanenitrile and 2-methyl-2-[5-[(3R)-3-amino-5,5,7-trifluoro-2-oxo-1-[[4-(trifluoromethoxy)phenyl]methyl]-3,4-dihydro-1-benzazepin-8-yl]-1,3,4-oxadiazol-2-yl]propanenitrile [Example 2] | 10.5 | 22.1 |  | 827 | 256 | 
CC(C)(c1nnc(-c2cc3c(cc2F)C(F)(F)CC(N)C(=O)N3Cc2ccc(Oc3ccccc3)cc2)o1)S(C)(=O)=O (racemic) [Example 5, (3S)-3-amino-5,5,7-trifluoro-8-[5-(1-methyl-1-methylsulfonyl-ethyl)-1,3,4-oxadiazol-2-yl]-1-[(4-phenoxyphenyl)methyl]-3,4-dihydro-1-benzazepin-2-one and (3R)-3-amino-5,5,7-trifluoro-8-[5-(1-methyl-1-methylsulfonyl-ethyl)-1,3,4-oxadiazol-2-yl]-1-[(4-phenoxyphenyl)methyl]-3,4-dihydro-1-benzazepin-2-one] | 124 | 57.9 | 2330 |  |  | 165
CC(C)(C)c1nnc(-c2cc3c(cc2F)C(F)(F)C[C@@H](N)C(=O)N3Cc2ccc(OC3CCCC3)cc2)o1 (single isomer, unassigned) [Example 7] | 70.3 | 49.5 | 280 |  |  | 94
COc1ccc(-c2ccc(CN3C(=O)[C@H](N)CC(F)(F)c4cc(F)c(-c5nnc(C(C)(C)C#N)o5)cc43)cc2)cc1 (single isomer, unassigned) [Example 9] | 43.6 | 32.6 | 370 |  |  | 133
(3S)-3-amino-5,5,7-trifluoro-8-(5-morpholino-1,3,4-oxadiazol-2-yl)-1-[[4-(trifluoromethoxy)phenyl]methyl]-3,4-dihydro-1-benzazepin-2-one and (3R)-3-amino-5,5,7-trifluoro-8-(5-morpholino-1,3,4-oxadiazol-2-yl)-1-[[4-(trifluoromethoxy)phenyl]methyl]-3,4-dihydro-1-benzazepin-2-one [Example 3] |  |  |  | > 10000 | 37 | 

More lines, main results first:

IC50 (DGK α kinase) [nM] | IC50 (DGK ζ kinase) [nM] | EC50 (primary human T-cells; Homo sapiens, T-cell) [nM] | Molecule | EC50 (primary human T-cells) [nM] | Emax IL2 (% activation) (primary human T-cells) | Emax (primary human T-cells; Homo sapiens, T-cell) [%]
8.2 | 80.3 | 237 | CC(C)(C#N)c1nnc(-c2cc3c(cc2F)C(F)(F)CC(N)C(=O)N3Cc2ccc(-n3cc(C(F)(F)F)cn3)cc2)o1 (racemic) [Example 33, 2-[5-[(3S)-3-amino-5,5,7-trifluoro-2-oxo-1-[[4-[4-(trifluoromethyl)pyrazol-1-yl]phenyl]methyl]-3,4-dihydro-1-benzazepin-8-yl]-1,3,4-oxadiazol-2-yl]-2-methyl-propanenitrile and 2-[5-[(3R)-3-amino-5,5,7-trifluoro-2-oxo-1-[[4-[4-(trifluoromethyl)pyrazol-1-yl]phenyl]methyl]-3,4-dihydro-1-benzazepin-8-yl]-1,3,4-oxadiazol-2-yl]-2-methyl-propanenitrile] |  |  | 62
93.1 | 1060 | 378 | COc1ccc(-c2ccc(CN3C(=O)[C@H](N)CC(F)(F)c4cc(F)c(-c5nnc(C(C)(C)S(C)(=O)=O)o5)cc43)cc2)cc1 (single isomer, unassigned) [Example 10] |  |  | 57
108 | 73 | 367 | CC(C)(C#N)c1nnc(-c2cc3c(cc2F)C(F)(F)C[C@@H](N)C(=O)N3Cc2ccc(-c3ccc(C(F)(F)F)cn3)cc2)o1 (single isomer, unassigned) [Example 12] |  |  | 67
46.2 | 136 | 457 | CC(F)(F)c1ccc(-c2ccc(CN3C(=O)[C@H](N)CC(F)(F)c4cc(F)c(-c5nnc(C(C)(C)C#N)o5)cc43)cc2)nc1 (single isomer, unassigned) [Example 37] |  |  | 136
